Reference: publication PMC6143625, “A high throughput screen for next-generation leads targeting malaria parasite transmission” (Nature Communications, 2018)

What was measured:
[1] = system: P. falciparum stage V female gametocytes (female gamete formation); experiment: P. falciparum dual gamete formation assay (Pf DGFA), female readout (Pfs25 expression), 48 h carry-over format; type: cell-based, Plasmodium falciparum NF54; settings: primary screen, 2 uM, 48 h incubation, single replicate
[2] = system: P. falciparum stage V male gametocytes (male gamete formation); experiment: P. falciparum dual gamete formation assay (Pf DGFA), male readout (exflagellation), 48 h carry-over format; type: cell-based, Plasmodium falciparum NF54; settings: primary screen, 2 uM, 48 h incubation, single replicate

| SMILES | %Inhibition Female @2uM [1] [%] | %Inhibition Male @2uM [2] [%] |
| --- | --- | --- |
| CN(C)Cc1nnc(C2CCN(c3ncccn3)CC2)n1C1CC1 [DDD01250187] | <30 | 31.65 |
| CCc1ccccc1C(=O)N1C[C@@H](CN2CCOCC2)[C@@H](CO)C1 [DDD01250732] | <30 | 143.16 |
| O=C(c1ccccn1)N1C[C@H]2CC[C@@H](C1)N(C(=O)CCC1CCCC1)C2 [DDD01250927] | <30 | 61.83 |
| O=C(c1ccccc1)N1C[C@H]2CC[C@@H](C1)N(Cc1cc(F)ccc1Cl)C2 [DDD01251068] | <30 | 176.84 |
| Cc1oc(-c2ccoc2)nc1CN1CCC[C@H]1CO [DDD01251548] | <30 | 131.44 |
| CN(C)c1nccnc1N1CC[C@@]2(O)CCNC[C@H]2C1 [DDD01251755] | 48.40 | <30 |
| COc1ccc(CN2CCC3(CCCNC3)C2)cc1Cn1cccn1 (stereo not shown) [DDD01251771] | <30 | 126.32 |
| CN(C)C(C(=O)N1CC(Oc2ccccc2F)C1)c1ccc(F)cc1 (stereo not shown) [DDD01251854] | 43.98 | <30 |
| Cc1ocnc1C(=O)N1CCC(c2nccn2Cc2ccncc2)CC1 [DDD01252089] | <30 | 78.03 |
| CN(C)c1ccccc1C(=O)N1CCOC2(CNCCOC2)C1 (stereo not shown) [DDD01252114] | <30 | 137.91 |
| COc1cccc2c1OCC(C(=O)N1CCN(C3CCCC3)C(=O)C1)C2 (stereo not shown) [DDD01252180] | <30 | 176.84 |
| COc1ccc(-c2cc(CNc3ncnc4c3CCNCC4)no2)cc1 [DDD01252258] | 36.22 | <30 |
| CN(C)c1nc2c(c(N(C)C)n1)CCN(C(=O)CN1C[C@H]3CC[C@@H]1C3)C2 [DDD01252415] | 30.39 | <30 |
| Cc1c(NCc2cccnc2)cccc1C(=O)N1CCC(N(C)C)C1 (stereo not shown) [DDD01252445] | <30 | 39.91 |
| c1ccn2c(C3CCCN(c4ncnc5c4CCNC5)C3)nnc2c1 (stereo not shown) [DDD01252518] | 33.03 | <30 |
| O=C(c1cccc(S(=O)(=O)NCCc2ccccn2)c1)N1CCOCC1 [DDD01252530] | <30 | 176.84 |
| CN(C)Cc1nnc(C2CCCN(Cc3ccc(Cl)s3)C2)n1C (stereo not shown) [DDD01252876] | <30 | 184.62 |
| Cc1cc(CC(=O)N2CCN(CC(C)C)[C@@H]3CS(=O)(=O)C[C@@H]32)ccc1F [DDD01253102] | <30 | 30.33 |
| Cc1ccc(-c2nc(CNC(C)CCO)[nH]c2-c2ccccn2)cc1 (stereo not shown) [DDD01253542] | 47.40 | 59.22 |
| CN1CC2(CCN(C(=O)c3ccc(=O)n(C)c3)CC2)CC1=O [DDD01253564] | 30.30 | <30 |
| CS(=O)(=O)N1C[C@H]2CC[C@@H](C1)N(C(=O)CCn1cnc3ccccc31)C2 [DDD01253654] | <30 | 35.49 |
| Cc1cc(NCc2ccc(O)cc2)n2nc(C)cc2n1 [DDD01253811] | 99.46 | <30 |

| SMILES | %Inhibition Female @2uM [1] [%] | %Inhibition Male @2uM [2] [%] |
| --- | --- | --- |
| CC(C)OC(=O)N1CCC(Cc2cccc(C(N)=O)c2)C1 (stereo not shown) [DDD01254183] | <30 | 132.02 |
| CSc1ccc(C(=O)N2CCCC(Nc3ccc(F)cc3)C2)cc1 (stereo not shown) [DDD01254674] | <30 | 162.04 |
| Cc1oc(-c2ccoc2)nc1CN1CCCCC1CCc1ccccc1 (stereo not shown) [DDD01254868] | <30 | 143.16 |
| O=C(CSc1ccncc1)N1CCC2(CC1)c1ccccc1CC2O (stereo not shown) [DDD01255239] | <30 | 143.16 |
| CN(Cc1nccn1C)C1CCCN(CCCc2ccccc2)C1 (stereo not shown) [DDD01255359] | <30 | 61.22 |
| CCc1nnc(CNC(=O)CCN2CCN(c3cccc(C)c3)CC2)s1 [DDD01255634] | <30 | 133.78 |
| Cc1ccc(CN2CCN(C(=O)c3ccc(CO)cc3)C(C)C2=O)cc1 (stereo not shown) [DDD01255654] | 38.25 | <30 |
| COC(=O)C1CCN(C(=O)c2cccc(NS(C)(=O)=O)c2C)CC1 [DDD01255952] | <30 | 126.32 |
| COc1cccc2c1OCC(C(=O)N1CCC(NS(C)(=O)=O)CC1)C2 (stereo not shown) [DDD01255971] | <30 | 160.00 |
| Cc1ccccc1C(=O)Nc1ccc(OC2CCN(C)CC2)cc1 [DDD01256105] | <30 | 177.06 |
| Cc1cnn(CCCN2C(=O)CCc3ccccc32)c1 [DDD01256166] | <30 | 31.82 |
| Cc1ccc(CN2CCCC(c3nnc(CN4CCCC4)n3C)C2)s1 (stereo not shown) [DDD01256510] | <30 | 109.47 |
| COCCN(C)CCN1CC2(CCN(C3CCOCC3)CC2)OC1=O [DDD01256592] | <30 | 44.84 |
| O=C(O)CCc1cc2n(n1)CCCN(C(=O)c1cc3ccccc3s1)C2 [DDD01256606] | 30.77 | <30 |
| CC(C)(CNC1CCCN(Cc2ccccn2)C1)CN1CCOCC1 (stereo not shown) [DDD01256674] | 31.10 | <30 |
| Cc1cc(C(=O)N2CCC(c3nccn3Cc3ccccn3)CC2)no1 [DDD01256728] | <30 | 88.77 |
| CCOCC(=O)N1CCC(c2nccn2CC2CC2)CC1 [DDD01256942] | <30 | 104.28 |
| CN(C)C(=O)N1C[C@H]2CC[C@@H](C1)N(C/C=C/c1ccc(F)cc1)C2 [DDD01256992] | 32.94 | <30 |
| COc1ccc(C(=O)N2CCOC3(CNCCOC3)C2)c(OC)n1 (stereo not shown) [DDD01257050] | <30 | 126.32 |
| CN(Cc1ccccc1CN1CCCC1)C(=O)c1c[nH]c(=O)[nH]1 [DDD01257093] | 34.04 | <30 |
| Cc1ccc(F)cc1CC(=O)N(CCN1CCOCC1)Cc1ccco1 [DDD01257151] | 36.90 | <30 |
| O=C1N(CCC2CCCCC2)CCCC1(O)CNCCc1ccccc1 (stereo not shown) [DDD01257222] | <30 | 147.75 |

| SMILES | %Inhibition Female @2uM [1] [%] | %Inhibition Male @2uM [2] [%] |
| --- | --- | --- |
| CCn1cc(CN(C)C(=O)c2cccc(CCC(C)(C)O)c2)cn1 [DDD01257573] | 32.19 | <30 |
| CN(CCO)Cc1nnc(C2CCN(C3CCCCC3)CC2)n1C [DDD01257771] | 30.00 | <30 |
| COc1ccc(C(=O)C2CCCN(Cc3ccncc3)C2)c(OC)c1 (stereo not shown) [DDD01257881] | 31.13 | <30 |
| c1cn(Cc2nnc(C3CCN(c4nccs4)CC3)n2C2CC2)cn1 [DDD01257895] | 34.43 | <30 |
| Cc1nn(C)cc1C(=O)N1C[C@@H]2CC[C@H]1CN(S(=O)(=O)N(C)C)C2 [DDD01257957] | 39.59 | <30 |
| Cc1cc(C)nc(N2Cc3cnn(Cc4ccc(F)cc4)c3C2)n1 [DDD01258067] | 46.44 | <30 |
| COc1cc(C)c(CN2CCC3(CC2)C(C(=O)O)CC(=O)N3C)cc1C (stereo not shown) [DDD01258170] | 46.51 | <30 |
| COc1cccc(S(=O)(=O)NC(=O)CC2CCCO2)c1 (stereo not shown) [DDD01295262] | 46.83 | <30 |
| Cc1nn(C)c(C)c1CCC(=O)N1CCCC(n2cccn2)C1 (stereo not shown) [DDD01296064] | <30 | 47.51 |
| Cc1cn2c(n1)CCC(NC(=O)Cn1cncn1)C2 (stereo not shown) [DDD01296301] | 57.78 | <30 |
| NC(=O)COc1ccc(C(=O)N2CCCC(n3ccnc3)C2)cc1 (stereo not shown) [DDD01296946] | 40.74 | <30 |
| Cc1cnn(CC2CCCN2Cc2nnc(C(C)C)o2)c1 (stereo not shown) [DDD01296988] | 33.35 | 60.45 |
| CN(Cc1nnc(C2CC2)n1C)C1CCN(Cc2nccn2C)C1 (stereo not shown) [DDD01296990] | <30 | 57.47 |
| CCS(=O)(=O)N1CCC(NC(=O)c2cc(C)ccc2O)CC1 [DDD01297269] | 56.83 | <30 |
| CC(C)CCc1nc(CNCC2CCCN2c2cccnn2)cs1 (stereo not shown) [DDD01297850] | 39.30 | <30 |
| CCc1nnc2n1CCN(C(=O)c1nc(-c3ccco3)sc1C)C2 [DDD01298399] | <30 | 30.87 |
| CN1CCOC(CNCc2coc(-c3ccccc3Cl)n2)C1 (stereo not shown) [DDD01298713] | <30 | 34.66 |
| O=C(c1ccc(-n2ccnc2)cc1)N1CCCC(n2ccnc2)C1 (stereo not shown) [DDD01298772] | 36.32 | <30 |
| Cc1cc(NC(=O)CN2CCc3cnc(C(C)C)nc3C2)on1 [DDD01298964] | 41.23 | <30 |
| Cc1cc(C)cc(OCCN2CCn3c(C)nnc3C2)c1 [DDD01299569] | 31.60 | <30 |
| CCN1CCN(Cc2csc(C(C)C)n2)CC1 [DDD01301366] | <30 | 30.44 |
